This is an account of results in ChEMBL document CHEMBL3045860, “The effect of sodium bicarbonate alone or in combination with a reduced dose of tebuconazole on the control of apple scab” (Crop Prot, 2006).

Type in all cases: organism-based
Holding throughout (conditions): in vivo

Data set [1] has as its system Malus domestica. The data set is described as follows: Phytotoxicity in Malus x domestica (apple) assessed as length of harvested fruit at 0.025% […] (reference value: 63.3 mm).
In data set [2] the test system is Malus domestica. The data set is described as follows: Phytotoxicity in Malus x domestica (apple) assessed as mass of harvested fruit at 0.025% […] (reference value: 181 g).
Data set [3] relates to Malus domestica. The data set is described as follows: Phytotoxicity in Malus x domestica (apple) assessed as width of harvested fruit at 0.025% […] (reference value: 76 mm).
Data set [4] deals with Malus domestica. The data set is described as follows: Phytotoxicity in Malus x domestica (apple) assessed as total soluble solid of harvested fruit at 0.025% by refractometric analysis (reference value: 14%).

For the compound `CC(C)(C)C(O)(CCc1ccc(Cl)cc1)Cn1cncn1` (centres undefined) [TEBUCONAZOLE], the Activity turned out to be 68 mm in the data set with Malus domestica [1], 229 g in the data set on Malus domestica [2], 80.3 mm with Malus domestica [3] and 14.1% in the data set with Malus domestica [4].
